Data set [1] in a line: Selectivity index, ratio of CC50 for human MRC5 cells to IC50 for human Cytomegalovirus infected in human ARPE-19 cells incubated for 10 days. The data set is classed as toxicity, cell-based. The conditions noted are these: time 6 day, read-out: Ratio CC50/IC50.
The nature of data set [2]: Cytotoxicity against human MRC5 cells assessed as reduction in cell viability incubated for 6 days by Hoechst 33342 staining based microscopic analysis. The note with it: time 6 day.
Data set [3] is described as follows: Drug uptake in rabbit RK13 cells incubated for 24 hrs by Hoechst staining based microscopic analysis. The data set is classed as ADME, cell-based, Oryctolagus cuniculus. The note with it: rk13, 24 h.
Data set [4] concerns Human betaherpesvirus 5. The experiment in a line: Antiviral activity against human Cytomegalovirus infected in human ARPE-19 cells assessed as reduction in infection rate incubated for 10 days by Hoechst 33342 staining based microscopic analysis. The data set is classed as functional, cell-based. The conditions noted are these: Human betaherpesvirus 5, ARPE-19, 240 h; read-out: IC50.

Data set [5] deals with Human betaherpesvirus 5. The experiment in a line: Antiviral activity against letermovir resistant Cytomegalovirus UL56 R369G infected in human MRC5 cells assessed as reduction in infection rate at 600 nM incubated for 6 days by Hoechst 33342 staining based microscopic analysis. The note with it: time 6.0 day. The data set is classed as functional, cell-based.
Data set [6] relates to Human betaherpesvirus 5. The data set can be described thus: Antiviral activity against ganciclovir resistant Cytomegalovirus UL54 D301N infected in human MRC5 cells assessed as reduction in viral DNA replication incubated for 6 days by Hoechst 33342 staining based microscopic analysis. The data set is classed as functional, cell-based. The conditions noted are these: time 6.0 day.

Data set [7] in a line: Selectivity index, ratio of CC50 for human MRC5 cells to IC50 for human Cytomegalovirus infected in human MRC5 cells incubated for 6 days. The data set is classed as toxicity, cell-based. The note with it: time 6 day, read-out: Ratio CC50/IC50.
The test system of data set [8] is Human betaherpesvirus 5. The data set can be described thus: Antiviral activity against ganciclovir resistant Cytomegalovirus UL54 D301N infected in human MRC5 cells assessed as reduction in infection rate incubated for 6 days by Hoechst 33342 staining based microscopic analysis. The note with it: time 6.0 day. The data set is classed as functional, cell-based.

Data set [9] relates to Human betaherpesvirus 5. The data set can be described thus: Antiviral activity against Human Cytomegalovirus infected in human MRC5 cells assessed as reduction in infection rate incubated for 6 days by Hoechst 33342 staining based microscopic analysis. The data set is classed as functional, cell-based. The note with it: Human betaherpesvirus 5, MRC5, 144 h; read-out: IC50.

Data set [10] in a line: Drug metabolism in human ARPE-19 cell culture at 10 uM incubated for 10 days. The data set is classed as ADME. The conditions noted are these: arpe-19, 240 h, time 10 day.
Data set [11] concerns Human betaherpesvirus 5. The experiment in a line: Antiviral activity against human Cytomegalovirus UL56 infected in human MRC5 cells assessed as reduction in infection rate incubated for 6 days by Hoechst 33342 staining based microscopic analysis. The data set is classed as functional, cell-based. The note with it: Human betaherpesvirus 5, UL56, MRC5, 144 h.
For data set [12], the system named is Human betaherpesvirus 5. The data set can be described thus: Antiviral activity against human Cytomegalovirus infected in human ARPE-19 cells assessed as reduction in viral replication incubated for 12 days by Hoechst 33342 staining based microscopic analysis. The data set is classed as functional, cell-based. The note with it: Human betaherpesvirus 5, ARPE-19, 288 h.

For data set [13], the system named is Human betaherpesvirus 5. The experiment in a line: Antiviral activity against human Cytomegalovirus infected in human MRC5 cells assessed as reduction in viral replication incubated for 6 days by Hoechst 33342 staining based microscopic analysis. The data set is classed as functional, cell-based. The note with it: Human betaherpesvirus 5, MRC5, 144 h.
A short description of data set [14]: Selectivity index, ratio of CC50 for human MRC5 cells to IC50 for human Cytomegalovirus infected in human ARPE-19 cells incubated for 13 days. The data set is classed as toxicity, cell-based. The conditions noted are these: time 6 day, read-out: Ratio CC50/IC50.
The subject of data set [15] is Human betaherpesvirus 5. The experiment in a line: Antiviral activity against human Cytomegalovirus infected in human ARPE-19 cells assessed as reduction in viral replication incubated for 13 days by Hoechst 33342 staining based microscopic analysis. The data set is classed as functional, cell-based. The note with it: Human betaherpesvirus 5, ARPE-19, 312 h.

Calls of active or inactive are those of the source. The calls are words filed in the database; no cut-off is given here. Where only a bound is given, the exact number is not on record here.

By CC50 is commonly meant the concentration at which the toxic effect on the cells reaches its halfway point. As usually defined, the IC50 is the concentration needed to halve the response being measured. Consider `Fc1cc(F)c(F)c(-c2c3nc(c4ccc([nH]4)c(-c4c(F)c(F)cc(F)c4F)c4ccc([nH]4)c(-c4c(F)c(F)c(F)c(F)c4F)c4ccc2[nH]4)C=C3)c1F`, for which the selectivity ratio at 144 h in data set [1] worked out at 416; in [7], 24.9. For the same molecule, the CC50 at 144 h in [2] was 16.2 µM. Also, the Drug uptake result in data set [3] is “Active”. Besides, the IC50 was 0.02 µM with Human betaherpesvirus 5 [4] and 0.65 µM in the data set on Human betaherpesvirus 5 [9]. Further, the outcome in the data set with Human betaherpesvirus 5 [5], with Human betaherpesvirus 5 [6] and with Human betaherpesvirus 5 [8] was Active. In data set [10], the Drug metabolism result is given as “Metabolite_Notdetected”.
With `COc1cccc(N2CCN(C3=Nc4c(F)cccc4[C@H](CC(=O)O)N3c3cc(C(F)(F)F)ccc3OC)CC2)c1` [LETERMOVIR], the IC50 in the data set on Human betaherpesvirus 5 [11] was found to be 0.004 µM.
Regarding `Fc1ccc(F)c(-c2c3nc(c4ccc([nH]4)c(-c4c(F)ccc(F)c4F)c4ccc([nH]4)c(-c4c(F)ccc(F)c4F)c4ccc2[nH]4)C=C3)c1F`, the figures for the IC50 with Human betaherpesvirus 5 [12], in the data set with Human betaherpesvirus 5 [13] and in the data set with Human betaherpesvirus 5 [15] were 2.3 µM, 1.8 µM and 2.3 µM, respectively. Moreover, in data set [2], the CC50 at 144 h is over 50 µM. Also, the selectivity ratio at 144 h is over 28 in data set [7] and over 21 in [14].

These data come from ChEMBL document CHEMBL4699427, “A3- and A2B-fluorocorroles: synthesis, X-ray characterization and antiviral activity evaluation against human cytomegalovirus infection” (RSC Med Chem, 2020).
